The target of assay [1] is T1, GnRH receptor (Homo sapiens, UniProt P30968).
T1 sequence (P30968 1-328): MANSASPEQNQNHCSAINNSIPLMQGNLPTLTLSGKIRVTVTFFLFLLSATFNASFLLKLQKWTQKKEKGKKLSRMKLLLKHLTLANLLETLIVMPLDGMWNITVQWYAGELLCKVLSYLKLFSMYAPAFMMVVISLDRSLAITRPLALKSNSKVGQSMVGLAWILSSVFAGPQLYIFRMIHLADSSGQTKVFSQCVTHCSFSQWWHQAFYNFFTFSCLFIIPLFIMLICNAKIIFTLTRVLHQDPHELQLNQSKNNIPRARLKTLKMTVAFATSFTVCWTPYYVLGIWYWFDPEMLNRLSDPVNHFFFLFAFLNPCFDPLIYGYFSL
Kind of assay: Functional reporter gene assay (luciferase) in LTK cells carrying GnRH receptors, triptorelin stimulation. The format is cell-based. Details: expressed in transfected cells; host or cells: LTK cells (ATCC No. CCL-1.3), stably transfected, with CRE / CMV minimal promoter luciferase reporter. The settings on record: inhibition of triptorelin/Rolipram-stimulated luciferase reporter. As for the experimental part: Functional Reporter Gene Assay
For performing functional tests, stable, transfixed LTK cells carrying GnRH receptors (ATCC No. CCL-1.3) with a heterologous expression of cAMP responsible elements as well as a CMV minimal promoter-driven luciferase reporter gene are used.
The cells are cultivated in DMEM medium (Invitrogen Life Technologies, Germany) with penicillin (100 I.U./ml), streptomycin (0.1 mg/ml) and glutamine (0.01 mol/l) and 10% fetal calf serum (FCS; Invitrogen Life Technologies, Germany) on plastic tissue culture plates (Nunc, Germany, 245×245×20 mm).
80% confluent cell culture plates are washed twice with 50 ml of phosphate-buffered salt solution (PBS) and subsequently dissolved with trypsin EDTA solution (Invitrogen Life Technologies, Germany). The cells are pelletized by centrifuging at 200×g for 5 minutes in a laboratory centrifuge (Kendro, Germany). The cell pellet is resuspended in 3 ml of assay medium (Invitrogen Life Technologies, Germany) with penicillin (100 I.U./ml), streptomycin (0.1 mg/ml) and glutamine (0.01 mol/l) and 10% fetal calf serum (FCS; Invitrogen Life Technologies, Germany), and the cell count is determined by means of trypan blue staining in a Neubauer counting chamber. The cell suspension is set with assay medium to a concentration of 1×10^4 Z/100 μl. The cells are suspended on white 96-well microtiter plates (Costar, Germany) and incubated for 18 hours in an incubator.
To perform tests, test substances are diluted as 10 mmol DMSO solutions in assay medium to 6× the final concentration used. 25 μl of the test substance is added to 100 μl cells and incubated for 60 minutes at 37° C., 5% CO2. Then, the addition of triptorelin (D-Trp6-GnRH)/Rolipram solution (6 mmol/6 mmol) and a renewed incubation are carried out for 6 hours at 37° C., 5% CO2.
After incubation, the addition of 50 μl of lysis/detection buffer (LucLite, PE Life Science) and the measurement in a Lumistar luminometer (BMG Labtechnologies GmBH, Germany) are carried out.
The evaluation of the samples is carried out after calculating the inhibition in comparison to untreated stimulated cells, after removal of non-stimulated controls, by means of GraphPad Prism (GraphPad Software, Inc., USA) or alternately by means of OMMM (Accelrys, Germany) Software.
A general note: A reporter such as luciferase makes a cellular process visible.

Assay [2] deals with T1, GnRH receptor. In words: Receptor binding assay with 125I-triptorelin on transfected LTK cells. The settings on record: competition with 125I-triptorelin, whole LTK cells, 60 minutes at 37° C. As for the experimental part: ^125I-Triptorelin [^125I-(D)-Trp6-GnRH] is ordered from the Biotrend Company (Cologne, Germany). The specific activity in each case is 2.13 Ci/mmol. All other chemicals are ordered from commercial sources at the highest available purity.
Transfixed LTK′ cells (ATCC No. CCL-11.3) are cultivated in DMEM medium (Invitrogen Life Technologies, Germany) with penicillin (100 I.U./ml), streptomycin (0.1 mg/ml) and glutamine (0.01 mol/l) and 10% fetal calf serum (FCS; Invitrogen Life Technologies, Germany) on plastic tissue culture plates (Nunc, Germany, 245×245×20 nun).
80% confluent cell culture plates are washed twice with 50 ml of phosphate-buffered salt solution (PBS) and dissolved below with 0.01 M EDTA solution. The cells are pelletized by centrifuging at 200×g for 5 minutes in a laboratory centrifuge (Kendro, Germany). The cell pellet is resuspended in 3 ml of binding medium (DMEM; 10 mmol of Hepes; 0.5% BSA; 0.1% NaN3; 1 g/l of bacitracin (freshly added, stock 100×); 0.1 g/l of SBTI (freshly added, stock 1000×), and the cell count is determined by means of trypan blue staining in a Neubauer counting chamber. The cell suspension is set with binding medium to a concentration of 5×10^5 Z/0.05 ml.
Binding tests for competition curves are performed as duplicates. The test substances are used as 10 mmol DMSO solutions. They are diluted with binding medium to 4× the final concentration used. 25 μl of the substance dilution is mixed with 25 μl of tracer solution (^125I-triptorelin). The concentration of tracer is set to about 50,000 cpm (measured in Cobra II, γ-counter, PE Liefe Science, Germany) in the final reaction volume of 100 μl.
200 μl of a silicone/paraffin oil mixture (84%:16%) is introduced into 650 μl pointed-bottom tubes (Roth, Germany). 50 μl of the cell suspension is pipetted thereto and subsequently 50 μl of the test substance/tracer mixture. The tubes are sealed and incubated for 60 minutes at 37° C. in an incubator that rotates via the top. After incubation, the samples are centrifuged in a centrifuge (Kendro, Germany) at 900 rpm and subsequently flash-frozen in liquid N2. The tip with the cell pellet is cut off and inserted into the prepared counting tube (Roth, Germany). The remainder of the pointed-bottom tube with the remaining supernatant is also inserted into a counting tube. The measurement is made in a γ-counter for 1 minute/sample.
The evaluation of the samples is carried out after calculating the specific bond in comparison to untreated cells, after the unspecific bond (excess unlabeled ligand, 1 mmol) is removed by means of GraphPad Prism (GraphPad Software Inc., USA).

The pEC50 is the negative decadic logarithm of the EC50, by convention in mol/L.

The structures appear in SMILES notation. pEC50: −log10 of the molar value.

Take `CC[C@H](C)[C@H](NC(=O)[C@@]1(NC(=O)[C@@H](NC(=O)OCc2ccccc2)[C@@H](C)CC)CCc2[nH]c3c(Cl)cc(Cl)cc3c2C1)C(=O)O` [Compound 301, Phenylmethyl [(1S,2S)-1-[[[(3R)-3-[[[(1S,2S)-1-(carboxy)-2-methylbutyl]amino]carbonyl]-6,8-dichloro-2,3,4,9-tetrahydro-1H-carbazol-3-yl]amino]car-bonyl]-2-methylbutyl]carbamate]: the values for the pEC50 on GnRH receptor [1] and at GnRH receptor [2] were 6.75 and 6.27, respectively.
Regarding `CC[C@H](C)[C@H](NC(=O)[C@@]1(NC(=O)[C@H](Cc2ccc(O)cc2)NC(=O)OCc2ccccc2)CCc2[nH]c3c(Cl)cc(Cl)cc3c2C1)C(N)=O` [Compound 302, Phenylmethyl [(1S)-1-[[[(3R)-3-[[[(1S,2S)-1-(aminocarbonyl)-2-methylbutyl]amino]carbonyl]-6,8-dichloro-2,3,4,9-tetrahydro-1H-carbazol-3-yl]amino]car-bonyl]-2-(4-hydroxyphenyl)-ethyl]carbamate], the figures for the negative-log EC50 (pEC50) at GnRH receptor [1] and on GnRH receptor [2] were 6.49 and 6.32, respectively.
Taken in the same sequence, the figures for `CC[C@H](C)[C@H](NC(=O)[C@@]1(NC(=O)[C@H](CCc2ccccc2)NC(=O)OCc2ccccc2)CCc2[nH]c3c(Cl)cc(Cl)cc3c2C1)C(N)=O` [Compound 304, Phenylmethyl [(1S)-1-[[[(3R)-3-[[[(1S,2S)-1-(aminocarbonyl)-2-methylbutyl]amino]carbonyl]-6,8-dichloro-2,3,4,9-tetrahydro-1H-carbazol-3-yl]amino]car-bonyl]-3-phenylpropyl]carbamate] were 7.74 and 7.42.

The values are drawn from patent US7122570B2, “Tetrahydrocarbazol derivatives as ligands for G-protein-coupled receptors (GPCR)” (Zentaris AG, priority 2001, dated 2006).
